Assays:
[1] = Basic safety tests (mutagenicity, biodegradability, oral acute toxicity, primary skin irritation, primary eye irritation); details: biodegradability and three acute toxicity tests performed by a designated organization
Description: In the development of drugs, quasi drugs, foods and the like, the most important and the biggest hurdle is the verification of safety of a rare sugar as a novel substance. A mutagenicity test, a biodegradability test and three types of acute toxicity tests (an oral acute toxicity test, a primary skin irritation test and a primary eye irritation test) are defined as the most basic safety tests. A rare sugar is a monosaccharide that exists in nature even in a small amount, therefore, it can be predicted that it will be safe. However, it is necessary to perform verification precisely. We asked the designated organization to perform the basic safety tests for three types of rare sugars, D-psicose, D-allose and allitol among rare sugars.

CLA-1 promoter = CLA-1 promoter luciferase reporter gene activity in HepG2 cells; type: cell-based, human; details: HepG2, 24 hours; 2.8-22.4 mM D-glucose or 22.4 mM D-psicose
Procedure: Further, by integrating a 1200 by promoter region of the CLA-1 gene into a luciferase reporter gene, introducing the gene into a cell and measuring the luciferase activity, the transcriptional activity of CLA-1 was determined.
6. The transcriptional activity of CLA-1 was also examined. The luciferase reporter gene containing the CLA-1 promoter was introduced into HepG2 cells and the resulting HepG2 cells were cultured with 2.8 mM (lane 1), 5.6 mM (lane 2), 11.2 mM (lane 3), 22.4 mM (lane 4) D-glucose or 22.4 mM D-psicose for 24 hours and the luciferase activity was measured. A high concentration of D-glucose inhibited the activity of the CLA-1 promoter.

SMILES | basic safety tests [1] | activity of the CLA-1 promoter (luciferase activity) (CLA-1 promoter)
O=C[C@H](O)[C@H](O)[C@H](O)[C@H](O)CO [D-allose] | there are not any problems in the safety | 
O=C[C@H](O)[C@@H](O)[C@H](O)[C@H](O)CO [D-glucose, reference compound] |  | inhibited
O=C(CO)[C@H](O)[C@H](O)[C@H](O)CO [D-psicose] | there are not any problems in the safety | did not affect
OC[C@@H](O)[C@@H](O)[C@@H](O)[C@@H](O)CO [allitol] | there are not any problems in the safety | 

— patent US20100222284A1, “COMPOSITION FOR INHIBITING THE ONSET OF ARTERIOSCLEROSIS AND INHIBITION METHOD” (priority 2004, published 2010)
